Here are results for two compounds from patent publication US5204373A, “Farnesylated tetrahydro-naphthalenols as hypolipidemic agents” (Bristol-Myers Squibb Company, priority 1991, dated 1993).

Molecules are shown by their SMILES.

One experiment has as its system 6-week old male chickens. Kind of experiment: In vivo lipid metabolism evaluation in normocholesterolemic chickens (serum cholesterol pools). Conditions: test compound 50 ppm in corn-soybean diet for four weeks; for LDL Cholesterol: control 62.7 ± 2.5; for HDL Cholesterol: control 99.9 ± 1.9; for Total Cholesterol: fasted 36 h, refed 48 h, control 183.0 ± 4.5. Further details: species or system chicken. The protocol:
Serum cholesterol, triglycerides, low density and high density liproprotein cholesterol as determined in drug treated birds.
(§1) Newborn male chicks (8 for each group) were raised on a standard corn-soybean based control diet for two weeks and then switched to either control or experimental diets for four weeks. Drug treatment consisted of the addition of test compounds to the corn-soybean-based diet at a concentration of 50 ppm. At the end of the feeding period, all the birds were fasted (36 hours) and refed (48 hours) to induce cholesterolgenic enzymes prior to sacrifice. The specific activity of HMGR, total serum cholesterol levels, LDL cholesterol and HDL cholesterol pools were determined using previously described methods (Qureshi et al., J. Biol. Chem., 261, 10544 (1986)) (Table 1).

In experiment [1] the test system is β-Hydroxy-β-Methylglutaryl Coenzyme A Reductase (HMGR). Kind of experiment: Ex vivo HMGR suppression in the liver of drug dosed chickens. Further details: species or system chicken. Conditions: test compound 50 ppm in diet for four weeks, control 33.8. The protocol:
β-Hydroxy-β-Methylglutaryl Coenzyme A Reductase (HMGR) activity in the liver of drug dosed chickens.
as §1

A further experiment deals with LDL. Kind of experiment: LDL antioxidant assay (conjugated diene formation). The settings on record: for LR (end of lag phase of LDL oxidation) vs control: whole rabbit plasma incubated with drug, LDL isolated, time of first derivative maximum of conjugated diene kinetic curve. In kind it is biochemical, rabbit. The protocol:
Inhibition of LDL oxidation as measured by conjugated diene formation.
Whole rabbit plasma was incubated with either vehicle or drug, and the LDL was isolated by ultracentrifugation. EDTA was removed by dialysis and analysis of co-dependent LDL oxidation was determined by conjugated diene formation using the protocol established by Esterbauer et al., (Free Radical Res. Commun. 6(1), 75-75 (1989)). The time of the first derivative maximum in the kinetic curves, corresponding to the end of the lag phase (LR) of the reaction, indicates both the intrinsic effectiveness of the antioxidant combined with its local concentration with in the LDL particles. […] Substitution of methylene for oxygen at position 1 would diminish antioxidant capacity.

For `CC(C)=CCC/C(C)=C/CC/C(C)=C/CCC1(C)CCc2cc(O)ccc2C1` (centres unmarked) [Compound 12, 5,6,7,8-Tetrahydro-6-Methyl-6-(4,8,12-Trimethyl-3(E), (7E), 11-tridecatrienyl)-2-Naphthalenol], in the experiment on 6-week old male chickens, the “LDL Cholesterol” value was 28.4 ± 1.3, the “HDL Cholesterol” value was determined as 85.3 ± 1.3 and the “Total Cholesterol” value was 125.5 ± 3.0. In experiment [1], the “HMGR (specific activity)” value was found to be 14.6. Also, the “LDL antioxidation properties (in words)” value in the experiment on LDL (rabbit LDL, conjugated diene formation) is reported as “exhibits LDL antioxidation properties”. Moreover, the “LR (end of lag phase of LDL oxidation) vs control” value with LDL is 1.32.
Regarding `CC(C)=CCC/C(C)=C/CC/C(C)=C/CCC1(C)CCc2cc(O)ccc2O1` (centres unmarked) [Tocotrienol, reference compound], in the experiment with 6-week old male chickens, the “LDL Cholesterol” value is on record as 42.8 ± 2.8, the “HDL Cholesterol” value was 91.7 ± 1.0 and the “Total Cholesterol” value was determined as 149.8 ± 4.5. Further, the “HMGR (specific activity)” value in experiment [1] was determined as 13.6. In addition, in the experiment with LDL, the “LR (end of lag phase of LDL oxidation) vs control” value is 2.01.
